Where two headings read alike, the source gives them in different places.
Legend:
NLRP3 inflammasome = assay: Immunoblot of NLRP3 and TXNIP in isolated mouse hearts after ischemia-reperfusion (Langendorff)
isolated mouse hearts = assay: Postischemic functional recovery (LVDP) of isolated Langendorff-perfused mouse hearts
human Nav1.5 (WT) [1] = molecular target: T1, human Nav1.5 (WT) (Homo sapiens, UniProt Q14524); details: for Effect on peak-INa: over a range of concentrations
human Nav1.5 (WT) [2] = molecular target: T1, human Nav1.5 (WT); assay: cell-based
mouse cardiomyocytes = assay: Calcium transients (Fluo-4) in paced single mouse cardiac myocytes, veratridine-induced spontaneous events; format: cell-based
Protocol: Cardiomyocytes were isolated from 3- to 6-month-old male C57Bl6N mice as described above and then loaded with 1 µmol/L Fluo-4 AM for 30 to 60 minutes at room temperature before imaging with an Olympus IX83 inverted microscope. The cells were perfused with a gravity controlled, multi-channel superfusion system at a flow rate of 1.5 mL/min. Fluorescence was recorded at 20 Hz through a UPLSAPO 20X objective and an Andor iXon Ultra 897 camera after excitation at 480 nm for 9.85 ms at 5% intensity of the X-cite 120 LED Boost Excelitas light source. Cardiomyocytes were field-stimulated at 1 Hz at a current value 10% above the threshold current required to elicit contraction using a current stimulator (Warner Instruments, SIU-102) equipped with platinum electrodes submerged in the recording bath. Cardiomyocytes were selected on the basis of their typical rod-shaped morphology, the absence of unpaced calcium events, and their consistent response to field stimulation. […] Regions of interest were selected such that the cardiomyocyte resided within the boundaries of the regions of interest in both its contracted and its relaxed state. The average fluorescence intensity for the regions of interest in every frame was then analyzed. Fifty-second segments of the fluorescence intensity trace in control and treated conditions from the same cardiomyocyte were obtained. Typically, these segments were the last 50 s during the >120 s superfusion of the chosen treatment condition.

human Nav1.5 R1623Q = molecular target: T2, human Nav1.5 R1623Q (Homo sapiens, UniProt Q14524, R1623Q); assay: Whole-cell patch-clamp of recombinant Nav1.5 LQT3 R1623Q mutant; format: cell-based; details: 10 µmol/L
T2 construct: expressed in transfected cells; host or cells: HEK293T
Protocol: (§1) The human Nav1.5 gene (SCN5A) in the pcDNA3.1(+)/C-(K)DYK vector (GenScript, Cat No. OHu18270D, USA) was cotransfected with a GFP vector into HEK293T cells using Lipofectamine 3000 (Invitrogen, Cat No. L3000001, USA). Transfected cells were seated on coverslips and used for functional studies within 48 to 72 hours. […] PCR products were cloned into XL-10 Gold Ultracompetent cells (Agilent, Cat No. 200315, USA), and DNA was isolated and purified by GeneElute Plasmid Miniprep kits (Sigma, Cat No. PLN350, USA). The presence of the desired mutations and the integrity of plasmids were then verified by DNA sequencing (The Applied Genomics Core, University of Alberta). The R1623Q LQT3 mutation in human Nav1.5 was constructed as described previously.[42]
(§2) Pipettes were pulled from borosilicate glass (World Precision Instruments, Sarasota, FL) using a P-87 micropipette puller (Sutter Instruments, Novato, CA), and the tips were fire-polished, yielding resistances of 3 to 4 MΩ. The pipette solution contained (in mmol/L) 130 CsCl, 5 NaCl, 5 TEA (tetra-ethyl ammonium chloride)-Cl, 2.5 HEPES, 1 EGTA, and 2 MgATP. The pH was adjusted to 7.2 with CsOH. The extracellular solution contained (in mmol/L) 140 NaCl, 10 HEPES, 1 CaCl2, 1.4 MgCl2, 5 KCl, and 5 glucose (pH adjusted to 7.4 with NaOH).

[3] = test system: cardiac sodium current (peak, total, late-INa) in TAC cardiomyocytes; assay: Whole-cell patch-clamp of sodium currents in cardiomyocytes from TAC (heart failure) mice; format: cell-based, mouse; details: 10 µmol/L
Protocol: (§3) Male C57BL/6 N mice (7 weeks of age) were obtained from Charles River Canada (St. Foy, Quebec) and housed in a temperature and humidity-controlled animal facility with a 12:12-hour light-dark cycle for a minimum of 1 week before investigation. Animals were maintained on Rodent Chow #5001 and water ad libitum. Eight-week-old mice weighing 20 to 25 g were anesthetized with a cocktail of ketamine (100 mg/kg) and xylazine (20 mg/kg) intraperitoneal and preoperative analgesia (meloxicam, 1–2 mg/kg subcutaneous). Once animals reached a surgical plane, endotracheal intubation was performed using 22-G tubing. The endotracheal tube was then connected to a ventilator (Hugo-Sachs Electronik Mini-Vent, Harvard Apparatus Canada) and ventilated at 200 to 250 µl stroke volume and 150 breaths/min. Animals were then prepared for surgery (Liquid Tears applied to eyes; chest and throat shaved and washed and topical antiseptic utilized, then draped). A vertical skin incision was made from the suprasternal notch to midsternum, and then straight blunt scissors were used to cut the sternum to the third or fourth rib. Mini-Goldstein (FST) spreaders were used to retract the ribs. The thymus was blunt-dissected and the aortic arch visualized. The transverse arch was carefully dissected free of connective tissue, and a 6/0 silk tie was passed around the arch between the innominate and left carotid arteries. A double-blunted 27-G (0.4-mm) needle was then placed alongside the arch and the tie ligated. The blunted needle was then removed to standardize the stenosis. The thymus was gently replaced, and retractors removed. Two sutures were placed in the sternum, and the skin incision was closed using 6/0 Vicryl suture continuous pattern. Sham-operated animals underwent the same procedure without banding. Animals were removed from the ventilator and left to recover in a prewarmed cage with no bedding until the “righting reflex” was achieved, and checked initially every 5 to 10 minutes for the first 60 minutes, then regularly at 20 to 30 minutes intervals for the next 2 to 3 hours. […]

human Nav1.5 ΔKPQ = molecular target: T3, human Nav1.5 ΔKPQ (Homo sapiens, UniProt Q14524, DEL1505-1507); assay: Whole-cell patch-clamp of recombinant Nav1.5 LQT3 ΔKPQ mutant; format: cell-based; details: 10 µmol/L
T3 construct: host or cells: HEK293T
Protocol: as §1, §2

human NCX1.1 = molecular target: T4, human NCX1.1 (Homo sapiens, UniProt P32418); assay: Whole-cell patch-clamp of reverse-mode NCX1.1 current in HEK293T cells; format: cell-based; details: 1 µmol/L
T4 construct: expressed in transfected cells; host or cells: HEK293T
From the text: as §2

[4] = test system: cardiac sodium current (peak, total, late-INa) in sham cardiomyocytes; assay: Whole-cell patch-clamp of sodium currents in cardiomyocytes from sham-operated mice; format: cell-based, mouse; details: 10 µmol/L
Protocol: as §3

[5] = 1 µmol/L, 30 min ischemia, 40 min reperfusion

Question: What does the source list for `NC1=N[C@H](O)[C@H]2[C@H]3O[C@]4(O)O[C@@H]([C@@H](O)[C@@]2(N1)[C@@H]4O)[C@]3(O)CO` [tetrodotoxin]?
Answer: Activation of TXNIP after ischemia-reperfusion (NLRP3 inflammasome): complete prevention; Activation of the NLRP3 inflammasome after ischemia-reperfusion (NLRP3 inflammasome): complete prevention; Reperfusion functional recovery (LVDP) (isolated mouse hearts): improved; Sensitivity of H2O2-induced persistent inward current (late-INa) (human Nav1.5 (WT) [1]): sensitive

Question: Which results are given for `CCOc1ccc(Cc2cc([C@@H]3O[C@H](CO)[C@@H](O)[C@H](O)[C@H]3O)ccc2Cl)cc1` [dapagliflozin]?
Answer: IC50 (human Nav1.5 (WT) [2]): 580 nM; Effect on peak-INa (human Nav1.5 (WT) [1]): little inhibitory effect

Question: For `CCN(CC)CC(=O)Nc1c(C)cccc1C` [lidocaine], which “Effect on incidence of veratridine-induced spontaneous transients” value (mouse cardiomyocytes) is on record?
Answer: The value was “significantly reduced”.

Question: `COc1ccc(C(=O)O[C@H]2CC[C@@]3(C)[C@@H]4CC[C@H]5[C@]6(O)C[C@H](O)[C@@]7(O)[C@@H](CN8C[C@@H](C)CC[C@H]8[C@@]7(C)O)[C@]6(O)C[C@@]53O[C@]24O)cc1OC` [veratridine] was tested. Which “Induction of late-INa activity and spontaneous calcium transients” value (mouse cardiomyocytes; 20 nmol/L, pilot experiments) did it give?
Answer: Its value is “induces late-INa activity”.

Question: For `COc1ccccc1OCC(O)CN1CCN(CC(=O)Nc2c(C)cccc2C)CC1` (centres unmarked) [ranolazine], which “Effect on incidence of veratridine-induced spontaneous transients” value (mouse cardiomyocytes; 10 µmol/L, 20 nmol/L veratridine) is on record?
Answer: Its value is “significantly reduced”.

Question: `OC[C@H]1O[C@@H](c2ccc(Cl)c(Cc3ccc(O[C@H]4CCOC4)cc3)c2)[C@H](O)[C@@H](O)[C@@H]1O` [empagliflozin] was tested. Which “Activation of TXNIP after ischemia-reperfusion” value (NLRP3 inflammasome; [5]) did it give?
Answer: Its value is “complete prevention”.

Question: And the “Activation of the NLRP3 inflammasome after ischemia-reperfusion” value (NLRP3 inflammasome; [5])?
Answer: The value was “complete prevention”.

Question: And the “Effect on late component of R1623Q current” value (human Nav1.5 R1623Q)?
Answer: The value was “significantly reduced”.

Question: What about the “Effect on peak component of R1623Q current” value (human Nav1.5 R1623Q) of the same compound?
Answer: The value was “significantly reduced”.

Question: What about the “Activation V50 after drug” value (human Nav1.5 R1623Q; R1623Q currents) of the same compound?
Answer: Its value is “–43.3 mV”.

Question: And the “Inactivation V50 after drug” value (human Nav1.5 R1623Q; R1623Q currents)?
Answer: Its value is “–97.5 mV”.

Question: And the “Effect on late-INa” value [3]?
Answer: The value was “significantly reduced”.

Question: And the “Effect on peak current” value [3]?
Answer: The value was “did not affect”.

Question: And the “Effect on total current (area under the curve)” value [3]?
Answer: Its value is “significantly reduced”.

Question: What about the “Reperfusion functional recovery (LVDP)” value (isolated mouse hearts; [5]) of the same compound?
Answer: The value was “improved”.

Question: And the IC50 (human Nav1.5 (WT) [2])?
Answer: Its IC50 is 790 nM.

Question: And the “Effect on peak current of ΔKPQ” value (human Nav1.5 ΔKPQ; data not shown)?
Answer: Its value is “did not inhibit”.

Question: And the “Steady-state late-INa after drug” value (human Nav1.5 ΔKPQ; ≈2% before drug)?
Answer: The value was “≈ 1 % of peak current amplitude”.

Question: What about the “Inhibition of reverse-mode NCX1.1” value (human NCX1.1) of the same compound?
Answer: The value was “no significant inhibition”.

Question: What about the “Frequency dependence of peak- and late-INa inhibition” value (human Nav1.5 (WT) [1]; 1 µmol/L, stimulation frequencies 0.2–3 Hz) of the same compound?
Answer: Its value is “no significant differences”.

Question: What about the “Effect on H2O2-induced late-INa in WT channels” value (human Nav1.5 (WT) [1]; 10 µmol/L) of the same compound?
Answer: Its value is “significantly inhibited”.

Question: What about the “Effect on H2O2-induced late-INa” value (human Nav1.5 (WT) [1]; 1 and 10 µmol/L) of the same compound?
Answer: Its value is “significantly inhibited”.

Question: What about the “Half-activation voltage (V50) after drug” value (human Nav1.5 (WT) [1]; WT currents, 10 µmol/L) of the same compound?
Answer: The value was “–42.4 mV”.

Question: What about the “Effect on peak-INa” value (human Nav1.5 (WT) [1]) of the same compound?
Answer: Its value is “little effect”.

Question: What about the “Effect on late-INa” value [4] of the same compound?
Answer: Its value is “did not significantly alter”.

Question: What about the “Effect on peak current” value [4] of the same compound?
Answer: Its value is “did not significantly alter”.

Question: What about the “Effect on total sodium current” value [4] of the same compound?
Answer: Its value is “did not significantly alter”.

Question: And the “Reduction of the occurrence of veratridine-induced spontaneous transients” value (mouse cardiomyocytes; 1 µmol/L, 20 nmol/L veratridine, 1 Hz field stimulation)?
Answer: Its value is 46%.

Question: What about the “Effect on calcium transients in vehicle control-treated cardiomyocytes” value (mouse cardiomyocytes; no veratridine, data not shown) of the same compound?
Answer: Its value is “no observable effect”.

Question: How did the “Effect on peak-INa” value (human Nav1.5 (WT) [1]) turn out when canagliflozin was run?
Answer: The value was “little inhibitory effect”.

Question: What about the IC50 (human Nav1.5 (WT) [1]; read-out: IC50 for inhibition of H2O2-induced late-INa, recombinant human Nav1.5 in HEK293T cells, late-INa induced by 30 µmol/L H2O2) of the same compound?
Answer: Its IC50 is 1260 nM.
